Here are results for two compounds from ChEMBL document CHEMBL4308859, “Discovery of Novel Central Nervous System Penetrant Metabotropic Glutamate Receptor Subtype 2 (mGlu2) Negative Allosteric Modulators (NAMs) Based on Functionalized Pyrazolo[1,5- a]pyrimidine-5-carboxamide and Thieno[3,2- b]pyridine-5-carboxamide Cores” (J Med Chem, 2018).

In data set [1] the target is Metabotropic glutamate receptor 2 (Rattus norvegicus, UniProt P31421). Briefly: Negative allosteric modulation of rat mGlu2R expressed in HEK293 cells co-expressing Galpha15 assessed as decrease in glutamate-induced calcium mobilization preincubated for 2.3 mins followed by glutamate addition and measured after 1.7 mins by Fluo-4-AM dye based fluorescence assay. It counts as functional, cell-based.
Chain of Metabotropic glutamate receptor 2 (P31421 whole entry): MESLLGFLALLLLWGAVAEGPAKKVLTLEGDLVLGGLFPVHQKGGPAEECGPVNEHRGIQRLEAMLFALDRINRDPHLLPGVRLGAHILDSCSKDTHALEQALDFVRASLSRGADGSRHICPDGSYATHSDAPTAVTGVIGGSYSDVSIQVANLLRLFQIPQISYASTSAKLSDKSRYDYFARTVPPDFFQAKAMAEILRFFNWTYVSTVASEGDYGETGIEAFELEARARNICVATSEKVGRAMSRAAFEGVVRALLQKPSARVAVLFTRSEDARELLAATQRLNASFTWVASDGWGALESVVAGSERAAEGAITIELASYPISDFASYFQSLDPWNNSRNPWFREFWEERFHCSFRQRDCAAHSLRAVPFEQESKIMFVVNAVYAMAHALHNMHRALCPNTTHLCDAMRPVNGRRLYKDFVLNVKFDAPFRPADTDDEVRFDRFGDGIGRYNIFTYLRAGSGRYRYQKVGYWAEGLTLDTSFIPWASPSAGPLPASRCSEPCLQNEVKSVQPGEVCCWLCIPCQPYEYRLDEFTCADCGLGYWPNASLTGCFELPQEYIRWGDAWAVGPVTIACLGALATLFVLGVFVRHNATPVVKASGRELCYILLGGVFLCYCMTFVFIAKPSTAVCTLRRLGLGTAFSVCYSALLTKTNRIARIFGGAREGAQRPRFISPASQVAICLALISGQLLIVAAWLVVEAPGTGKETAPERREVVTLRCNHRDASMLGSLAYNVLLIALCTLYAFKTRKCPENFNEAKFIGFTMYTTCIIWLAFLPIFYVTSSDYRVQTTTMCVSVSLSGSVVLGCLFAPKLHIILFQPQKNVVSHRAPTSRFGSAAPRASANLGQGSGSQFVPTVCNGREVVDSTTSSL

The target in data set [2] is Metabotropic glutamate receptor 2 (Rattus norvegicus) (UniProt P31421). As to the kind of experiment: Negative allosteric modulation of rat mGlu2R expressed in HEK293 cells co-expressing Galpha15 assessed as decrease in glutamate-induced calcium mobilization at 30 uM preincubated for 2.3 mins followed by glutamate addition and measured after 1.7 mins by Fluo-4-AM dye based fluorescence assay relative to control. It counts as functional, cell-based.
Chain of Metabotropic glutamate receptor 2 (Rattus norvegicus) (P31421 19-872 limits assumed): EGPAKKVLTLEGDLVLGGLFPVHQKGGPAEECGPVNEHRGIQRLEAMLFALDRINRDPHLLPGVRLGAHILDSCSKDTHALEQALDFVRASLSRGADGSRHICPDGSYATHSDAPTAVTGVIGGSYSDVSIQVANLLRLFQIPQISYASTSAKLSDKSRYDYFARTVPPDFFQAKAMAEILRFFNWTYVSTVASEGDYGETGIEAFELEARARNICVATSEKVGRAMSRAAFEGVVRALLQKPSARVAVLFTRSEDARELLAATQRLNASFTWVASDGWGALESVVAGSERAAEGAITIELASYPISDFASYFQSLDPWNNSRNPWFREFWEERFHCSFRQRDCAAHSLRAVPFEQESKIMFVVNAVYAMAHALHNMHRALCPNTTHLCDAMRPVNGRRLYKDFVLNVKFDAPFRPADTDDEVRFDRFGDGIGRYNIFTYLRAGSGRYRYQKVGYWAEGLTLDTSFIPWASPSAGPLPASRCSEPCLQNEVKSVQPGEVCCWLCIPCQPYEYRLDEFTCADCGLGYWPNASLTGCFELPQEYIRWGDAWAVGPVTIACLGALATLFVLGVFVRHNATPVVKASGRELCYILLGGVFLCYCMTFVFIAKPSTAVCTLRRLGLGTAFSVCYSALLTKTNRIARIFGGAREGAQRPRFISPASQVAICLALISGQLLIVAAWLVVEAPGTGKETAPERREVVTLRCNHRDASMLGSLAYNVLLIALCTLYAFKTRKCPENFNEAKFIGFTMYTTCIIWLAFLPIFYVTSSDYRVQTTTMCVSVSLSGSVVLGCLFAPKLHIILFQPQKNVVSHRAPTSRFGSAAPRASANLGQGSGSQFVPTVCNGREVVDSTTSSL

Data set [3] is described as follows: Fraction unbound in rat plasma after 4 hrs by equilibrium dialysis method. Format: ADME, cell-free.
A short description of data set [4]: Fraction unbound in human plasma after 4 hrs by equilibrium dialysis method. Format: ADME, cell-free.
The nature of data set [5]: Fraction unbound in rat brain. It counts as ADME, tissue-based.
Data set [6] can be described thus: Brain to plasma partition coefficient, Kp of the compound in Sprague-Dawley rat at 0.2 mg/kg, iv administered as cassette dose by LC-MS/MS analysis. Format: ADME, organism-based. The following applies: brain and plasma.
A short description of data set [7]: Unbound brain to plasma ratio in Sprague-Dawley rat at 0.2 mg/kg, iv administered as cassette dose by LC-MS/MS analysis. It counts as ADME, organism-based. The following applies: brain and plasma, read-out: K(p,uu,brain).
A short description of data set [8]: Half life in Sprague-Dawley rat at 0.2 mg/kg, iv administered as cassette dose by LC-MS/MS analysis. Format: ADME, organism-based. The following applies: in vivo.
Data set [9] deals with Metabotropic glutamate receptor 3 (Rattus norvegicus, UniProt P31422). Briefly: Negative allosteric modulation of rat mGlu3R expressed in Trex cells co-expressing Galpha15 assessed as decrease in glutamate-induced calcium mobilization preincubated for 2.3 mins followed by glutamate addition and measured after 2.6 mins by Fluo-4-AM dye based fluorescence assay. Format: functional, cell-based.

The target of data set [10] is Metabotropic glutamate receptor 1 (Homo sapiens, UniProt Q13255). Briefly: Negative allosteric modulation of human mGlu1R expressed in Trex293 cells assessed as decrease in glutamate-induced calcium mobilization preincubated for 2.3 mins followed by glutamate addition and measured after 2.6 mins by Fluo-4-AM dye based fluorescence assay. It counts as functional, cell-based.
Chain of Metabotropic glutamate receptor 1 (Q13255 whole entry): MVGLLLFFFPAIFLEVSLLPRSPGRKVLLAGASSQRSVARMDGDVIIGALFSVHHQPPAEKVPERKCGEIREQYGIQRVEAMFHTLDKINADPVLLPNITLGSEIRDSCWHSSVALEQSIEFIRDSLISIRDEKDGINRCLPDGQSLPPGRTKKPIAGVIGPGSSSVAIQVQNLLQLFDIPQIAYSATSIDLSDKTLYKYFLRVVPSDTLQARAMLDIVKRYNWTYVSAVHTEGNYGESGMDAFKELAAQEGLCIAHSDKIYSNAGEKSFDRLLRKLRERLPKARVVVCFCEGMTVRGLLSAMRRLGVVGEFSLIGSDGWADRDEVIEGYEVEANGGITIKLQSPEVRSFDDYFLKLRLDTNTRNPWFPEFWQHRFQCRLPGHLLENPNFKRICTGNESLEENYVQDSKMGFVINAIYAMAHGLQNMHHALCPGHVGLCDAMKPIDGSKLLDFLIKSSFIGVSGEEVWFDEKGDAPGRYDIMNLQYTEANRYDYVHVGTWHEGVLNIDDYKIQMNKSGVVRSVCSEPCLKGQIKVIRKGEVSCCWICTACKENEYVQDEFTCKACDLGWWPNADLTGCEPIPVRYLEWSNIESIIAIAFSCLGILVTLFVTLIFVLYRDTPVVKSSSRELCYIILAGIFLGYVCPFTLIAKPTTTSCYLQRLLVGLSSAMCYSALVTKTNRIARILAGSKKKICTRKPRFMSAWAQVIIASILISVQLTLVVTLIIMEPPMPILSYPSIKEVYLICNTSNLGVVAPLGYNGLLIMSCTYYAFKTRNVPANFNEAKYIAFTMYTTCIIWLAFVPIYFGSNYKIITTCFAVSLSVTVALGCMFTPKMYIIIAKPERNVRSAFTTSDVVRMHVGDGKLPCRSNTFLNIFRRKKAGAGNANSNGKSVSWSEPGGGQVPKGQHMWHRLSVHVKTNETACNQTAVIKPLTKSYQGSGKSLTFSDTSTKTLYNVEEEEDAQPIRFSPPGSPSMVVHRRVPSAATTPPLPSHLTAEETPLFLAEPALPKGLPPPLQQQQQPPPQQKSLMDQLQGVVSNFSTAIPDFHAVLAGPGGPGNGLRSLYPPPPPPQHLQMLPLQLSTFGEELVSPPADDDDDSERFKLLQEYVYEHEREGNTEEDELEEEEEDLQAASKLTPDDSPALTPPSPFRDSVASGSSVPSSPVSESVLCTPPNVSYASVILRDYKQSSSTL

Data set [11] has as its target Metabotropic glutamate receptor 5 (Homo sapiens, UniProt P41594). Briefly: Negative allosteric modulation of human mGlu5R expressed in Trex293 cells assessed as decrease in glutamate-induced calcium mobilization preincubated for 2.3 mins followed by glutamate addition and measured after 2.6 mins by Fluo-4-AM dye based fluorescence assay. It counts as functional, cell-based.

The target of data set [12] is Metabotropic glutamate receptor 4 (Rattus norvegicus, UniProt P31423). Briefly: Negative allosteric modulation of rat mGlu4 receptor expressed in HEK cells harboring GIRK assessed as reduction in glutamate-induced thallium flux preincubated for 2.3 mins followed by glutamate addition measured after 2.6 mins by BTC-AM-dye based fluorescence assay. It counts as cell-based.

Data set [13] deals with Metabotropic glutamate receptor 6 (Homo sapiens, UniProt O15303). As to the kind of experiment: Negative allosteric modulation of human mGlu6 receptor expressed in HEK cells harboring GIRK assessed as reduction in glutamate-induced thallium flux preincubated for 2.3 mins followed by glutamate addition measured after 2.6 mins by BTC-AM-dye based fluorescence assay. Format: cell-based.
Chain of Metabotropic glutamate receptor 6 (O15303 whole entry): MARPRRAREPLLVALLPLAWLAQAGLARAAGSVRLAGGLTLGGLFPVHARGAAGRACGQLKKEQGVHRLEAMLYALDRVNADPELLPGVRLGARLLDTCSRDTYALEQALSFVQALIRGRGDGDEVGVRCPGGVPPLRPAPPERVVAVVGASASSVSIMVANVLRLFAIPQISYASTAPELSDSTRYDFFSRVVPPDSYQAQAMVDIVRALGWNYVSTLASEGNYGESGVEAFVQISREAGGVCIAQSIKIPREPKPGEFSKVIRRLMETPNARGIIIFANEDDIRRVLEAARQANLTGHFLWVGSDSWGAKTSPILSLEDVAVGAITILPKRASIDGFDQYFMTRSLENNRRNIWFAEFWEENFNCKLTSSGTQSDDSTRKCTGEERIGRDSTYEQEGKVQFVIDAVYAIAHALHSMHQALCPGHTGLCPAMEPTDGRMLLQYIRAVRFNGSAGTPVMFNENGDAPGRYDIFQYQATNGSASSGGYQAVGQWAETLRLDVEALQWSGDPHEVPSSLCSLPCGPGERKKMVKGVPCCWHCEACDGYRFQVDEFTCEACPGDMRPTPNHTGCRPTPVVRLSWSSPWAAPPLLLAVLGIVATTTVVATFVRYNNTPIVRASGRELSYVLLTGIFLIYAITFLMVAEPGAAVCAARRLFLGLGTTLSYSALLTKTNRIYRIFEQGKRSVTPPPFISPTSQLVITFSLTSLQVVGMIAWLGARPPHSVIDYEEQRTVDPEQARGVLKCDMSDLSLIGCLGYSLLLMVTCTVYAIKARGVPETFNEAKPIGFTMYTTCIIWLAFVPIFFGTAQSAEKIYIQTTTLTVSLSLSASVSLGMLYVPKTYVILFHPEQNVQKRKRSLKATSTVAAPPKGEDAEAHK

Data set [14] deals with Metabotropic glutamate receptor 7 (Rattus norvegicus, UniProt P35400). Briefly: Negative allosteric modulation of rat mGlu7 receptor expressed in HEK cells harboring GIRK assessed as reduction in […]-induced thallium flux preincubated for 2.3 mins followed by […] addition measured after 2.6 mins by BTC-AM-dye based fluorescence assay. Format: cell-based.
Chain of Metabotropic glutamate receptor 7 (P35400 whole entry): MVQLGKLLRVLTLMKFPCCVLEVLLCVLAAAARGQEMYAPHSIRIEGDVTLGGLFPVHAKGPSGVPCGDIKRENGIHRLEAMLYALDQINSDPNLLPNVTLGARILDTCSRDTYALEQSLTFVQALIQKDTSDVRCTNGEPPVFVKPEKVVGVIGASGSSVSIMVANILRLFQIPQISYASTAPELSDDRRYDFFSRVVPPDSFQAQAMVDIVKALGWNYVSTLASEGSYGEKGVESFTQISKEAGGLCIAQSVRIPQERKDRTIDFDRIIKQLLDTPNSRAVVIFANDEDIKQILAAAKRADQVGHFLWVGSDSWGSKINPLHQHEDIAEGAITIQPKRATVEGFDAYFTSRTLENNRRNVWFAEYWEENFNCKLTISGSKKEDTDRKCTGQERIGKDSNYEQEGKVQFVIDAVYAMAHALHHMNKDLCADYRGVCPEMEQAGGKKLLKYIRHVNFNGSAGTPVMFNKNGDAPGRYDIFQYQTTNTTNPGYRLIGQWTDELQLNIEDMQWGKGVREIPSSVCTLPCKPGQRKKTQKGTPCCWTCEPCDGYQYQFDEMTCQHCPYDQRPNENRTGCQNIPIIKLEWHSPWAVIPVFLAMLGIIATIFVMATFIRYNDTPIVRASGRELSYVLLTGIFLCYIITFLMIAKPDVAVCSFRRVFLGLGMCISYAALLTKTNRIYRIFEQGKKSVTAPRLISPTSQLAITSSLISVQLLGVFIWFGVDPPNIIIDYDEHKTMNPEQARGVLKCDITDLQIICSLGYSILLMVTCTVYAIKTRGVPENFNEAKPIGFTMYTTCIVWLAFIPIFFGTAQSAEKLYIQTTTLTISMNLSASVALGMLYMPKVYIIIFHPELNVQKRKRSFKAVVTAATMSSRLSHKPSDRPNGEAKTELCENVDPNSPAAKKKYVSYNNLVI
For data set [15], the target named is Metabotropic glutamate receptor 8 (Rattus norvegicus, UniProt P70579). Briefly: Negative allosteric modulation of rat mGlu8 receptor expressed in HEK cells harboring GIRK assessed as reduction in glutamate-induced thallium flux preincubated for 2.3 mins followed by glutamate addition measured after 2.6 mins by BTC-AM-dye based fluorescence assay. It counts as cell-based.

Data set [16] can be described thus: Cmax in Sprague-Dawley rat plasma at 10 mg/kg, ip by LC-MS/MS analysis. It counts as ADME, organism-based. Also on record: dose 10 mg/kg, route intraperitoneal.
A short description of data set [17]: AUC in Sprague-Dawley rat plasma at 10 mg/kg, ip by LC-MS/MS analysis. Conditions: in vivo. Format: ADME, organism-based.
Data set [18] in a line: Cmax in Sprague-Dawley rat brain at 10 mg/kg, ip by LC-MS/MS analysis. Format: ADME, organism-based. Also on record: dose 10 mg/kg, route intraperitoneal.
Data set [19] is described as follows: AUC in Sprague-Dawley rat brain at 10 mg/kg, ip by LC-MS/MS analysis. The following applies: in vivo. It counts as ADME, organism-based.
Data set [20] in a line: Ratio of AUC in brain to plasma of Sprague-Dawley rat at 10 mg/kg, ip by LC-MS/MS analysis. It counts as ADME, organism-based. Conditions: brain and plasma, read-out: Ratio AUC.
The nature of data set [21]: Unbound Cmax in Sprague-Dawley rat brain at 10 mg/kg, ip by LC-MS/MS analysis. It counts as ADME, organism-based. The following applies: in vivo.
Data set [22] in a line: Unbound AUC in Sprague-Dawley rat brain at 10 mg/kg, ip by LC-MS/MS analysis. Format: ADME, organism-based. The following applies: in vivo.
A short description of data set [23]: Plasma clearance in Sprague-Dawley rat at 0.2 mg/kg, iv administered as cassette dose by LC-MS/MS analysis. It counts as ADME, organism-based.
Data set [24] is described as follows: Volume of distribution at steady state in Sprague-Dawley rat at 0.2 mg/kg, iv administered as cassette dose by LC-MS/MS analysis. Format: ADME, organism-based. Conditions: in vivo, read-out: Vdss.
Data set [25] in a line: Plasma clearance in Sprague-Dawley rat at 1 mg/kg, iv by LC-MS/MS analysis. Format: ADME, organism-based.
Data set [26] can be described thus: Half life in Sprague-Dawley rat at 1 mg/kg, iv by LC-MS/MS analysis. Format: ADME, organism-based. Conditions: in vivo.
Data set [27] can be described thus: Volume of distribution at steady state in Sprague-Dawley rat at 1 mg/kg, iv by LC-MS/MS analysis. It counts as ADME, organism-based. The following applies: in vivo, read-out: Vdss.

As for `C[C@@H]1CN(Cc2cc3nc(C(N)=O)cc(-c4ccc(F)cc4)c3s2)C[C@H](C)O1`, the concentration for half-maximal inhibition (IC50) is 0.55 µM in data set [1]; more than 30 µM in [9]; more than 30 µM in data set [10]; more than 30 µM in data set [11]; more than 30 µM in data set [12]; more than 30 µM in data set [13]. Besides, the half-inhibitory concentration (IC50) in [14] and in data set [15] was more than 30 µM in each case. In [2], the Emax was found to be 2.3%. For the same compound, the free fraction (fraction unbound) at 4 h amounted to 0.05 in [3] and 0.01 in data set [4]. For the same compound, the unbound share (fraction unbound) in data set [5] amounted to 0.005. Moreover, the Kp in [6] and in data set [20] was 5.67 in each case. In [7], the Kp uu was 0.52. This compound also returned a t1/2 in data set [8] of 1.5 h. Further, the maximum concentration (Cmax) in data set [16] came out at 1.07 µM; in data set [18], 6.09 µM. The AUC is 5.81 µM in data set [17] and 32.9 µM in data set [19]. For the same compound, in [21], the fCmax is 30.4 nM. Besides, the fAUC in [22] was determined as 165 nM.
Regarding `NC(=O)c1cc(-c2ccc(F)cc2)n2nc(COc3ccnc(C(F)(F)F)c3)cc2n1`, the IC50 in [1] was 0.794 µM; in [9], more than 30 µM; in data set [10], more than 30 µM; in data set [11] it was more than 30 µM; in data set [12], more than 30 µM; in data set [13], more than 30 µM. The IC50 in data set [14] and in data set [15] was more than 30 µM each time. Further, the Emax in data set [2] came to 2.4%. Besides, the fraction unbound at 4 h in data set [3] amounted to 0.03; in data set [4], 0.01. In data set [5], this compound returned a fraction unbound of 0.007. The same compound yielded a Kp in data set [6] of 4.04. In addition, the Kp uu in data set [7] turned out to be 0.86. Moreover, the clearance in data set [23] turned out to be 10 mL/min/kg; in data set [25], 16.4 mL/min/kg. In addition, the figures for the half-life in data set [8] (Sprague-Dawley) and in data set [26] were 4.28 h and 5.53 h, respectively. Further, the Vd in data set [24] was found to be 3.31 L/kg; in data set [27], 6.59 L/kg.
